PubChem BioAssay AID2038 (NMMLSC, 2009)
pKi: −log10 of the molar value. Calls of active or inactive are those of the source. The rule behind the calls is not given here.

These compounds were tested against GTPase HRas (Homo sapiens) (UniProt P01112) (assay: wildtype Ras GTP binding inhibitors, SAR follow-up, biochemical, additional analogs, multiplex flow cytometry, Ki (AID 2038)). Settings: Multiplex bead flow cytometry, fluorescent GTP binding.
GTPase HRas (Homo sapiens), sequence (P01112 whole entry, looked up): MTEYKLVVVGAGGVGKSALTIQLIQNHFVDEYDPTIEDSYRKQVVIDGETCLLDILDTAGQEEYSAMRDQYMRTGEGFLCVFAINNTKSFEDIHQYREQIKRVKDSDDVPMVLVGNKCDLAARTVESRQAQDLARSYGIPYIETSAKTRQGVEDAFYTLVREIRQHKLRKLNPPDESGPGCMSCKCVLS

EC50	SMILES
> 30 µM (inactive)	O=Nc1c(-c2c(O)[nH]c3ccccc23)[nH]c2ccccc12
> 30 µM (inactive)	O=C1C(c2c(O)[nH]c3c(F)cccc23)=Nc2ccccc21
> 30 µM (inactive)	O=Nc1c(-c2c(O)[nH]c3c(F)cccc23)[nH]c2ccccc12
> 30 µM (inactive)	O=Nc1c(-c2c(O)[nH]c3c(Cl)cccc23)[nH]c2ccccc12
> 30 µM (inactive)	O=Nc1c(-c2c(O)[nH]c3ccc(Br)cc23)[nH]c2ccccc12
> 37.5 µM (inactive)	O=Nc1c(-c2c(O)[nH]c3c(Br)cccc23)[nH]c2ccccc12
> 30 µM (inactive)	O=C1C(c2c(O)[nH]c3c(Br)cccc23)=Nc2ccccc21
> 30 µM (inactive)	O=C1C(c2c(O)[nH]c3c(Cl)cccc23)=Nc2ccccc21

More lines, now with the values behind:

SMILES	EC50
O=C1C(c2c(O)[nH]c3ccc(Br)cc23)=Nc2ccccc21	> 30 µM (inactive)
O=C1C(c2c(O)[nH]c3ccccc23)=Nc2ccccc21	> 30 µM (inactive)
O=C1N=c2ccccc2=C1c1[nH]c(=O)[nH]c1O	> 30 µM (inactive)
COc1ccc2cc([C@H](C)C(=O)O)ccc2c1	> 30 µM (inactive)
O=C1N=c2ccccc2=C1c1[nH]c(=S)[nH]c1O	> 30 µM (inactive)

Same assay, conditions: Multiplex bead flow cytometry, fluorescent GTP binding; measured here: Ki from EC50

pKi	SMILES
5.32	O=C(C#Cc1ccccc1)c1ccc(F)cc1
6.31	COc1ccc2cc([C@@H](C)C(=O)O)ccc2c1
5.23	O=Nc1c(-c2c(O)[nH]c3c(Br)cccc23)[nH]c2ccccc12
